Assay: Fluorescence response and chemoselectivity of ABR in organic media
From the text: Specifically, in order to devise a H2S-responsive fluorogenic molecular probe, the present inventors have adopted a reaction strategy based on the chemoselective reduction of aryl azides to amines, which is triggered through nucleophilic attack by a hydrosulfide anion (HS^−), which is the main active form of H2S under physiological conditions. In the probe design, the 4-azidobenzyl group was selected as a self-immolative aryl azide linker, and it was linked to a fluorescent emitter, resorufin, at its 7-hydroxy position. Since the 7-hydroxy substituent is known to efficiently quench the fluorescence of resorufin, the designed molecular probe, azidobenzylresorufin (ABR), is anticipated to be nonfluorescent and able to undergo self-immolative cleavage upon reaction with HS^−, to release a 1,6-elimination product (azaquinone methide) and resorufin with fluorescence recovery. […] Along the resulting fluorescence spectrum, the ^1H-NMR analysis confirmed that the fluorescent product is resorufin recovered through the self-immolative release from ABR after reduction by H2S (FIG. 3).

[N-]=[N+]=Nc1ccc(COc2ccc3nc4ccc(=O)cc-4oc3c2)cc1 [ABR, 7-(4-azidobenzyloxy)-3H-phenoxazin-3-one]
fluorescence response toward H2S (NaHS present vs absent, FIG. 2a): fluorescence turn-on response toward H2S | chemoselectivity in spectroscopic response (reactive sulfur, oxygen, nitrogen species 100 μM (GSH 1 mM) in acetonitrile, FIG. 2b): responded only to H2S
